Assay results from patent US20200010910A1, “Cytotoxic Chemotherapy-Based Predictive Assays for Acute Myeloid Leukemia” (The Regents of The University of California, priority 2017, published 2020).

Tests used:
[1] = IV dose of 1000 mg/m^2 over 30 minutes; cited from earlier work
[2] = tested on: 5637 and 5637R cell lines; assay: gemcitabine incorporation into DNA by AMS; format: cell-based, human
Experimental: The two cell lines were cultured as described above in Example 11. [^14C]Gemcitabine (FIG. 19) was labeled at position 2 (on the aromatic nucleobase) with a specific activity of 58.8 mCi/mmol (purchased from Moravek Biochemical). Unlabeled gemcitabine (USP Pharmaceutical Grade) was mixed with the labeled gemcitabine to achieve the correct specific activity for this experiment. […] This microdose is approximately 0.1% of a therapeutically relevant concentration. Cells were sampled for DNA extraction and AMS analysis of ^14C in DNA over 24 hours.

[3] = tested on: PDX Model BL0645; assay: PDX tumor growth under chemotherapy; format: in vivo, NSG mice; settings: cisplatin 2 mg/kg IV Q7Dx3, gemcitabine 150 mg/kg IP Q7Dx4
Experimental: (§1) Female NSG mice (5-8 weeks of age, body weight: 20 to 25 g) were obtained from Jackson Laboratories (CA, USA). […] To establish multiple PDXs to allow efficacy studies with multiple drugs, PDXs from passage 2-4 were minced into 1 mm^3 sections and injected subcutaneously into multiple mice. […] G/C combination chemotherapy consisted of the simultaneous administration of both drugs using the schema described above. Tumor growth was assessed by measuring palpable tumors with a caliper and calculating tumor volume. […] DNA was isolated using a modified Wizard procedure (Promega), quantitated by spectrophotometry, and then stored frozen at −20° C. until AMS analysis. […] Primary tumor tissue from four bladder cancer patients were implanted in NSG mice to create the PDX models described in Table 5. […] Of the four distinct tumors tested in the PDX model, three were resistance to cisplatin (BL0269, BL0293, BL0645) and two were resistance to gemcitabine (BL0269, BL0645) as single agent therapies.

[4] = tested on: PDX Model BL0269; assay: PDX tumor growth under chemotherapy; format: in vivo, NSG mice; settings: cisplatin 2 mg/kg IV Q7Dx3, gemcitabine 150 mg/kg IP Q7Dx4
Experimental: as §1

[5] = tested on: PDX Model BL0293; assay: PDX tumor growth under chemotherapy; format: in vivo, NSG mice; settings: cisplatin 2 mg/kg IV Q7Dx3, gemcitabine 150 mg/kg IP Q7Dx4
Experimental: as §1

[6] = tested on: PDX Model BL0440; assay: PDX tumor growth under chemotherapy; format: in vivo, NSG mice; settings: cisplatin 2 mg/kg IV Q7Dx3, gemcitabine 150 mg/kg IP Q7Dx4
Experimental: as §1

[7] = tested on: PDX Model BL0645; assay: drug-DNA adducts in PDX tumor by AMS; format: in vivo, NSG mice; settings: 24 h
Text: (§2) Female NSG mice (5-8 weeks of age, body weight: 20 to 25 g) were obtained from Jackson Laboratories (CA, USA). All animals were kept under pathogen-free conditions and were allowed to acclimatize for at least 4 days prior to any experiments. PDX models bearing the indicated patient derived xenografts were created by subcutaneous injection at the flank of 1 mm^3 tumor tissue. To establish multiple PDXs to allow efficacy studies with multiple drugs, PDXs from passage 2-4 were minced into 1 mm^3 sections and injected subcutaneously into multiple mice. At least 3 mice were used for each treatment group. Tumors were allowed to grow to at about 100 mm^3 before being assessed for drug sensitivity or the induction of DNA adducts by the administration of a microdose or a therapeutic dose of labeled drug. To assess tumor response to chemotherapy, cisplatin was administered at 2 mg/kg IV every 7 days for a total of 3 cycles, or gemcitabine was administered at 150 mg/kg IP every 7 days for a total of 4 cycles. G/C combination chemotherapy consisted of the simultaneous administration of both drugs using the schema described above. Tumor growth was assessed by measuring palpable tumors with a caliper and calculating tumor volume. Drug-DNA adduct frequencies were measured in tumor tissue collected 24 hours after intravenous injection of labeled drug and stored at −80° C. until DNA isolation. DNA was isolated using a modified Wizard procedure (Promega), quantitated by spectrophotometry, and then stored frozen at −20° C. until AMS analysis. Ten micrograms of DNA per sample was converted to graphite and measured by AMS for 14C quantification as previously described.
(§3) NSG mice bearing the indicated PDX tumors were injected with a microdose of ^14C-labeled carboplatin (FIG. 22A) or ^14C-labeled gemcitabine (FIG. 22B). The microdose of ^14C-labeled carboplatin was 0.375 mg/kg carboplatin, 50,000 dpm/g. The microdose of ^14C-labeled gemcitabine was 0.092 mg/kg gemcitabine, 1000 dpm/g. The doses of each drug administered to the mice were chosen to target 1 μM in plasma concentration of carboplatin and 0.3 μM in plasma concentration of gemcitabine. These plasma concentrations represent 1% of the approximate peak plasma concentration during human chemotherapy. Animals were sacrificed after 24 h and drug-DNA adduct frequency was determined from collected tumor tissue by AMS measurements of ^14C in tumor DNA. Carboplatin DNA-adduct levels correlate with PDX model sensitivity to cisplatin at 24 h after microdosing (FIG. 22A). Gemcitabine DNA-adduct levels correlate with PDX model sensitivity to gemcitabine at 24 h after microdosing (FIG. 22B). […] There is no significant difference in carboplatin-DNA monoadduct levels between the three resistant PDX models. […] We conclude that microdose induced carboplatin-DNA monoadducts predicts sensitivity to cisplatin chemotherapy, and microdose induced gemcitabine incorporation predicts sensitivity to gemcitabine chemotherapy.
(§4) In this example we test whether gemcitabine/carboplatin (G/Carbo) combination therapy has an effect on the formation of drug-DNA adducts in this synergistic tumor model. In FIG. 23A, NGS mice bearing BL0645 xenographs were administered via tail vein injection a therapeutic dose of [^14C]carboplatin alone or a therapeutic dose of [^14C]carboplatin in combination with a therapeutic dose of gemcitabine. Carboplatin-DNA monoadducts were measured in tumor tissue 24 h after dosing. A therapeutic dose of the combination [^14C]carboplatin plus unlabeled gemcitabine leads to a significant increase in carboplatin-DNA monoadduct level (94.84±16.02 versus 209.6±64.66 adducts per 10^8 nucleotides, p=0.032) compared to treatment with carboplatin alone. In FIG. 23B, the same experiment was conducted in which the mice received a therapeutic dose of [^14C]gemcitabine alone or a therapeutic dose of [^14C]gemcitabine in combination with a therapeutic dose of unlabeled carboplatin. […]

[8] = tested on: PDX Model BL0269; assay: drug-DNA adducts in PDX tumor by AMS; format: in vivo, NSG mice
Text: as §2, §3, §4

[9] = tested on: PDX Model BL0293; assay: drug-DNA adducts in PDX tumor by AMS; format: in vivo, NSG mice; settings: microdose 0.092 mg/kg gemcitabine, 24 h
Text: as §2
(§5) NSG mice bearing the indicated PDX tumors were injected with a microdose of ^14C-labeled carboplatin (FIG. 22A) or ^14C-labeled gemcitabine (FIG. 22B). The microdose of ^14C-labeled carboplatin was 0.375 mg/kg carboplatin, 50,000 dpm/g. The microdose of ^14C-labeled gemcitabine was 0.092 mg/kg gemcitabine, 1000 dpm/g. The doses of each drug administered to the mice were chosen to target 1 μM in plasma concentration of carboplatin and 0.3 μM in plasma concentration of gemcitabine. These plasma concentrations represent 1% of the approximate peak plasma concentration during human chemotherapy. Animals were sacrificed after 24 h and drug-DNA adduct frequency was determined from collected tumor tissue by AMS measurements of ^14C in tumor DNA. Carboplatin DNA-adduct levels correlate with PDX model sensitivity to cisplatin at 24 h after microdosing (FIG. 22A). Gemcitabine DNA-adduct levels correlate with PDX model sensitivity to gemcitabine at 24 h after microdosing (FIG. 22B). […] There is no significant difference in carboplatin-DNA monoadduct levels between the three resistant PDX models. […]

[10] = tested on: PDX Model BL0440; assay: drug-DNA adducts in PDX tumor by AMS; format: in vivo, NSG mice; settings: microdose 0.092 mg/kg gemcitabine, 24 h
Text: as §2, §5

[11] = tested on: 5637R; assay: MTT assay IC50, oxaliplatin-resistant bladder cancer sub-line; format: cell-based, human; settings: 5637R, 72 hours
Experimental: Drug-DNA adduct formation and repair was measured by accelerator mass spectrometry.
To confirm that 5637 was the original ATCC cell line, and that 5637R originated from the parental 5637 cell line, both cultures were sent to the ATCC Cell Line Authentication Service for cell verification per the ATCC protocol. More specifically, fifteen short tandem repeat (STR) loci plus the gender determining locus, amelogenin, were amplified using the commercially available PowerPlex® 16HS Kit from Promega.
These two cell lines were also cultured with a range of concentrations of cisplatin, carboplatin, gemcitabine, doxorubicin, methotrexate and vinblastine for 72 hours to determine IC50 for these other drugs (FIG. 16C). These drugs were chosen because of their frequent use in the treatment of bladder cancer.

[12] = tested on: J82; assay: MTT assay IC50, bladder cancer cell line; format: cell-based
Text: (§6) If these diadducts are the predominant DNA lesion responsible for cell death, then the IC50 of the two drugs should be linearly related. Thus, we measured the IC50 of the six NSCLC cell lines from Example 2 to both cisplatin and carboplatin to determine if the sensitivity of these six NSCLC cell lines to the two drugs are correlated. We observed a statistically significant linear correlation of the cytotoxicity of these two drugs in the 6 cell lines used in this study (R^2=0.72, p=0.033, FIG. 9A) and also to six additional ATCC bladder cancer cell lines. (R^2=0.72, p=0.033), FIG. 9B).

[13] = tested on: RT4; assay: MTT assay IC50, bladder cancer cell line; format: cell-based
Text: as §6

[14] = tested on: T24; assay: MTT assay IC50, bladder cancer cell line; format: cell-based
Text: as §6

[15] = tested on: TCCSUP; assay: MTT assay IC50, bladder cancer cell line; format: cell-based
Text: as §6

[16] = tested on: HT1197; assay: MTT assay IC50, bladder cancer cell line; format: cell-based
Text: as §6

[17] = tested on: H23; assay: MTT assay IC50; format: cell-based, human
Experimental: (§7) Six non-small cell lung cancer (NSCLC) cell lines were treated in culture with [^14C]carboplatin. Carboplatin-DNA monoadduct levels over time were determined by measuring ^14C content in genomic DNA with accelerator mass spectrometry (AMS). Cellular sensitivity to carboplatin and cisplatin was analyzed by the MTT assay (Henderson et al., International Journal of Cancer 2011).
(§8) Human NSCLC cell lines H23, H460, H727, HCC827, H1975, and A549 were purchased from ATCC and were cultured with the recommended medium. The MTT assay was performed as previously reported to determine the drug concentration required to inhibit cell growth by 50% (IC50) of cisplatin and carboplatin. [^14C]Carboplatin (at 53 mCi/mmol) was mixed with unlabeled carboplatin to achieve the specific activities required for microdoses and therapeutic doses. Table 1 lists the six NSCLC cell lines and summarizes their IC50 characteristics, induced carboplatin-DNA monoadducts when treated with [^14C]carboplatin, and p and r^2 values for correlation analysis to the IC50 concentrations.

[18] = tested on: HCC827; assay: MTT assay IC50; format: cell-based, human
Experimental: as §7, §8

[19] = tested on: H1975; assay: MTT assay IC50; format: cell-based, human
Experimental: as §7, §8

[20] = tested on: H727; assay: MTT assay IC50; format: cell-based, human
Experimental: as §7, §8

[21] = tested on: H460; assay: MTT assay IC50; format: cell-based, human
Experimental: as §7, §8

In the case of `Nc1ccn([C@@H]2O[C@H](CO)[C@@H](O)C2(F)F)c(=O)n1` [gemcitabine], the plasma concentration [1] is given as “about 30 μM”, the plasma half-life [1] is given as “about 60 minutes” and the “gemcitabine incorporation in 5637R compared to parental 5637 cells” value ([2]; 0.03 μM 4 hours, at 24 hours) is given as “much lower gemcitabine incorporation”. The “cytotoxicity of subtherapeutic dose” value ([2]; 0.03 μM for 4 hours) was “no cytotoxicity”, the “Xenograph Sensitivity” value [3] was “RES” and the “Xenograph Sensitivity” value [4] was “RES”. For the same compound, the “Xenograph Sensitivity” value [5] was “SEN”, the “Xenograph Sensitivity” value [6] was “SEN” and the gemcitabine adducts ([7]; microdose 0.092 mg/kg gemcitabine alone or with carboplatin 0.375 mg/kg) was 2.44±0.880 adducts per 10^8 nucleotides. The gemcitabine adduct level ([7]; therapeutic 9.2 mg/kg gemcitabine alone or with carboplatin 37.5 mg/kg) was 169.2±9.129 adducts per 10^8 nucleotides, the gemcitabine-DNA adduct levels ([8]; control experiment FIG. 23F, microdose single agent or G/Carbo combination) was 2.44±0.492 adducts per 10^8 nucleotides and the gemcitabine adduct levels ([8]; microdose 0.092 mg/kg gemcitabine, 24 h (FIG. 22B)) was 3.17±0.278. It also gave a gemcitabine adduct levels [9] of 10.0±5.92 and a gemcitabine adduct levels [10] of 13.1±10.2.

In the case of `N.N.[Cl][Pt][Cl]` [cisplatin], the “Xenograph Sensitivity” value [3] is reported as “RES”, the “Xenograph Sensitivity” value [4] is reported as “RES” and the “Xenograph Sensitivity” value [5] is reported as “RES”. The “Xenograph Sensitivity” value [6] was “SEN”, the IC50 [11] was 2.99 µM and the IC50 [12] was 12.6 ± 1.17 µM. It also gave an IC50 [13] of 8.35 ± 0.01 µM, an IC50 [14] of 5.28 ± 0.04 µM and an IC50 [15] of 11.7 ± 1.63 µM. It also gave an IC50 [16] of 6.2 ± 0.03 µM, an IC50 [17] of 4.23 µM and an IC50 [18] of 18.2 µM. For the same compound, the IC50 [19] was 14.5 µM, the IC50 [20] was 20 µM and the IC50 [21] was 3.53 µM.
